Earlier results in patent US20170216273A1, “Nicotine Derivatives and Methods of Use” (priority 2014, published 2017).

Conditions: approximately; no test described

SMILES	potency relative to the L isomer
CN1CCC[C@H]1c1cccnc1 (racemic) [Racemic nicotine]	70-80 % of the L isomer's potency
CN1CCC[C@@H]1c1cccnc1 (single isomer, unassigned) [D isomer of nicotine, D-nicotine]	25-30 % of the L isomer's potency
